Laboratory results taken from paper PMC5142287, “Weight control interventions improve therapeutic efficacy of dacarbazine in melanoma by reversing obesity-induced drug resistance” (Cancer & Metabolism, 2016).

How the values were obtained:
metastatic melanoma = tested on: metastatic melanoma; set-up: method as in PMID 10840932; settings: cited from earlier work
B16F1 cells [1] = assay: Long-term survival assay, B16F1 cells in CM from 3T3-L1 cells; assay type: cell-based, Murine
Description: Additional file 1: Table S1. Composition of diets used in the study. Normal diet (ND) was procured from Amrut Laboratory Animal Feed, Pune, India, and high fat diet (HFD) was purchased from Provimi Animal Nutrition Pvt. Ltd., Bangalore, India. *, HFD was also supplemented with 400 g groundnut and 200 g dried coconut per kg body weight of mice. […] Obesity-associated parameters in the experimental ND mice recorded at the end of the experiment. ND male C57BL/6J mice were divided into two major groups. One group was orally treated with orlistat every alternate day before inoculating with B16F10 cells. The second group was orally given vehicle control on every alternate day for 8 weeks. Mice from both the groups (N = 11 per each group) were injected (s.c.) with B16F10 cells (2 × 10^5 cells/mouse in 100 μl PBS). Their body weight was monitored weekly throughout the study, and serum was collected at the end of the experiment. Blood glucose, serum TG, serum cholesterol, serum-free fatty acids, and serum LDLc were measured. Serum factors including leptin, adiponectin, insulin, resistin, IL-6, and TNF-α were estimated by ELISA. […] Effect of obesity-associated serum factors on the protein level of P-gp, Cav-1, and FASN in B16F1 cells. […] Thereafter, these cells were subjected to immunofluorescence confocal staining of the indicated molecules. The data were recorded using Zeiss LSM510 META Confocal Microscope. (Scale bar = 20 μm). […] Data were acquired on FACS Calibur and analyzed using BD CellQuest Pro software. The data are representative of experiments performed three times. (PDF 120 kb) Additional file 5: Figure S3. Effect of inhibition of FASN, Cav-1, and P-gp on response of B16F1 cells to DTIC. […] Thereafter, these cells were subjected to long-term survival assay. […] The medium was changed every 2–3 days.

B16F1 cells [2] = assay: Long-term survival assay, B16F1 cells in serum from experimental mice; assay type: cell-based, Murine
Description: Additional file 1: Table S1. Composition of diets used in the study. Normal diet (ND) was procured from Amrut Laboratory Animal Feed, Pune, India, and high fat diet (HFD) was purchased from Provimi Animal Nutrition Pvt. Ltd., Bangalore, India. *, HFD was also supplemented with 400 g groundnut and 200 g dried coconut per kg body weight of mice. […] Obesity-associated parameters in the experimental ND mice recorded at the end of the experiment. ND male C57BL/6J mice were divided into two major groups. One group was orally treated with orlistat every alternate day before inoculating with B16F10 cells. The second group was orally given vehicle control on every alternate day for 8 weeks. Mice from both the groups (N = 11 per each group) were injected (s.c.) with B16F10 cells (2 × 10^5 cells/mouse in 100 μl PBS). Their body weight was monitored weekly throughout the study, and serum was collected at the end of the experiment. Blood glucose, serum TG, serum cholesterol, serum-free fatty acids, and serum LDLc were measured. Serum factors including leptin, adiponectin, insulin, resistin, IL-6, and TNF-α were estimated by ELISA. […] Effect of obesity-associated serum factors on the protein level of P-gp, Cav-1, and FASN in B16F1 cells. […] The data were recorded using Zeiss LSM510 META Confocal Microscope. […] Data were acquired on FACS Calibur and analyzed using BD CellQuest Pro software. […]

CN(C)/N=N/c1[nH]cnc1C(N)=O [DTIC, Dacarbazine]
Overall response rate (metastatic melanoma): 20–25% | Effect on survival (B16F1 cells [1]; CM from differentiated ID adipocytes): did not remarkably affect | Improvement of sensitivity to DTIC (B16F1 cells [1]; CM from differentiated adipocytes, simultaneous treatment with all three inhibitors): approximately 80% | Survival remaining (B16F1 cells [1]; CM from orlistat-treated differentiating adipocytes, DTIC at 649 μM): approximately 30% | Increase of sensitivity to DTIC (B16F1 cells [2]; HFD serum, FASN, Cav-1 and P-gp simultaneously inhibited): approximately 80% | Reduction of cell survival (B16F1 cells [2]; serum from orlistat-treated or diet-shifted obese mice, DTIC at 1415 μM): ~75%
